TGI and GI50 data for ten molecules are collected here from PubChem BioAssay (NCI).

Test systems include A549 NSCLC; ACHN renal; EKVX NSCLC; K-562 leukemia; LOX IMVI melanoma; MOLT-4 leukemia; NCI-H522 lung; SF-268 CNS; SK-MEL-2 melanoma; SW-620 colon.
Test in all cases: NCI tumour cell line growth inhibition, 48 h

Several values for one entry are separate records, joined by “and”; a condition that tells them apart may be missing. Identical values can stand only once.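 Five concentrations, 48 hours, 96-well plates. GI50 marks 50% less growth. TGI is the concentration that stops growth completely.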

As for `CC(=O)OC1C(COC(N)=O)OC(n2c(-c3ccc(C)cc3)cc(-c3ccccc3)c(C#N)c2=O)C(OC(C)=O)C1OC(C)=O` (stereo unspecified), the TGI in the assay on A549 NSCLC, with ACHN renal, in the assay on EKVX NSCLC, in the assay on K-562 leukemia, with LOX IMVI melanoma and with MOLT-4 leukemia was over 100 µM each time. The TGI in the assay with NCI-H522 lung, with SF-268 CNS, in the assay with SK-MEL-2 melanoma and in the assay with SW-620 colon was over 100 µM throughout.
As to `O=C(NC(=S)Nc1ccc(-c2nc3ccccc3[nH]2)cc1)c1ccc2ccccc2c1`, the GI50 in the assay with A549 NSCLC was 3.79 µM; in the assay on ACHN renal, 1.92 µM; with EKVX NSCLC it was 22.9 µM; in the assay with K-562 leukemia it was 13.3 µM; with LOX IMVI melanoma, 2.14 µM; in the assay on MOLT-4 leukemia, 8.04 µM. The GI50 is 18.9 µM in the assay on NCI-H522 lung, over 100 µM in the assay on SF-268 CNS, 18.3 µM in the assay on SK-MEL-2 melanoma and 4.2 µM in the assay on SW-620 colon. For the same molecule, the TGI in the assay on A549 NSCLC is over 100 µM; in the assay with ACHN renal, 4.02 µM; in the assay with EKVX NSCLC it was over 100 µM; with K-562 leukemia, over 100 µM; in the assay with LOX IMVI melanoma, 4.74 µM; in the assay on MOLT-4 leukemia, over 100 µM. Also, the TGI is over 100 µM in the assay with NCI-H522 lung, over 100 µM in the assay with SF-268 CNS, 48.8 µM in the assay with SK-MEL-2 melanoma and over 100 µM in the assay with SW-620 colon.
As to `CCC(CO)COC(=O)/C=C/C(=O)OCC(CC)CO` (stereo unspecified), the TGI in the assay on A549 NSCLC, in the assay with ACHN renal, with EKVX NSCLC, in the assay with K-562 leukemia, in the assay on LOX IMVI melanoma and with MOLT-4 leukemia was over 100 µM throughout. For the same molecule, the TGI with NCI-H522 lung, in the assay with SF-268 CNS, in the assay on SK-MEL-2 melanoma and with SW-620 colon was over 100 µM throughout.
As for `O=C(/C=C/c1cccnc1)c1ccccc1`, the GI50 is 17.2 µM with A549 NSCLC; 4.51 µM in the assay on ACHN renal; 14.1 µM in the assay with EKVX NSCLC; 2.85 µM with K-562 leukemia; 1.86 µM in the assay on LOX IMVI melanoma; 4.32 µM with MOLT-4 leukemia. For the same molecule, the GI50 is 1.67 µM in the assay on NCI-H522 lung, 14.4 µM in the assay with SF-268 CNS, 13.5 µM in the assay with SK-MEL-2 melanoma and 1.92 µM with SW-620 colon. Moreover, the TGI with A549 NSCLC came out at 34.2 µM; with ACHN renal, 17.1 µM; in the assay with EKVX NSCLC it was 27.7 µM; with K-562 leukemia it was 8.53 µM; in the assay with LOX IMVI melanoma it was 3.62 µM; in the assay with MOLT-4 leukemia, 20.2 µM. Moreover, the TGI in the assay on NCI-H522 lung amounted to 4.65 µM; with SF-268 CNS, 30 µM; in the assay with SK-MEL-2 melanoma it was 27 µM; in the assay with SW-620 colon it was 4.21 µM.
As to `CC[n+]1c(/C=C/c2ccc(N3CCCC3)cc2)cccc1/C=C/c1ccc(N2CCCC2)cc1`, the GI50 was 0.296 µM and 0.26 µM in the assay with A549 NSCLC; 0.18 µM and 0.24 µM in the assay with ACHN renal; 0.0832 µM in the assay with EKVX NSCLC; 0.22 µM and 0.145 µM in the assay on LOX IMVI melanoma; 0.128 µM and 0.354 µM in the assay with MOLT-4 leukemia; 0.239 µM with NCI-H522 lung. Moreover, the GI50 is 0.449 µM in the assay on SF-268 CNS; 0.56 µM with SK-MEL-2 melanoma; 0.287 µM and 0.233 µM with SW-620 colon. Moreover, the TGI with A549 NSCLC was 1.65 µM and 0.919 µM; with ACHN renal it was 0.915 µM and 1.14 µM; in the assay on EKVX NSCLC it was 2.08 µM; in the assay on K-562 leukemia it was over 100 µM; in the assay with LOX IMVI melanoma, 1.62 µM and 1.45 µM; with NCI-H522 lung, 2.08 µM. Also, the TGI with SF-268 CNS was 1.58 µM; with SK-MEL-2 melanoma, 2.38 µM; in the assay with SW-620 colon, 1.11 µM and 1.03 µM.
Turning to `Nc1n[nH]c2ccc([C@H]3[C@@H]4C5CCC(C5)[C@@H]4c4c(ccc5[nH]ncc45)N3S(=O)(=O)C3CC3)cc12` (stereo partly specified), the GI50 in the assay on A549 NSCLC is 0.237 µM; in the assay on ACHN renal, 0.346 µM; with EKVX NSCLC it was 0.264 µM; in the assay on K-562 leukemia it was 0.115 µM; with LOX IMVI melanoma, 0.303 µM; in the assay with MOLT-4 leukemia, 0.184 µM. Also, the GI50 in the assay with NCI-H522 lung was 0.183 µM; in the assay with SF-268 CNS, 0.618 µM; in the assay on SK-MEL-2 melanoma, 0.343 µM; in the assay with SW-620 colon, 0.203 µM. The TGI in the assay on A549 NSCLC was over 25.6 µM; with ACHN renal, 22.5 µM; with EKVX NSCLC, over 45.4 µM; in the assay on LOX IMVI melanoma it was 6.45 µM; in the assay on NCI-H522 lung it was 2.56 µM; with SF-268 CNS it was 14 µM. Besides, the results for the TGI in the assay with SK-MEL-2 melanoma and in the assay on SW-620 colon were 14.5 µM and over 33.7 µM, respectively.
`COc1ccc2c(c1)OC(N)=C(C#N)C2c1ccc(F)c(F)c1` (stereo unspecified): the GI50 is 0.706 µM with A549 NSCLC; 0.564 µM in the assay on ACHN renal; 0.751 µM with EKVX NSCLC; 0.257 µM with K-562 leukemia; 0.589 µM in the assay with LOX IMVI melanoma; 0.55 µM in the assay on MOLT-4 leukemia. Also, the GI50 was 0.255 µM in the assay with NCI-H522 lung, 0.754 µM with SF-268 CNS, 0.343 µM in the assay with SK-MEL-2 melanoma and 0.398 µM with SW-620 colon. Besides, the TGI with A549 NSCLC is over 100 µM; in the assay with ACHN renal, over 72.8 µM; in the assay with EKVX NSCLC, over 100 µM; in the assay with K-562 leukemia it was over 100 µM; in the assay with LOX IMVI melanoma, over 100 µM; in the assay with MOLT-4 leukemia, over 100 µM. The TGI is 9.25 µM in the assay on NCI-H522 lung, over 65.4 µM with SF-268 CNS, over 93.7 µM in the assay on SK-MEL-2 melanoma and over 100 µM with SW-620 colon.
Consider `C=CCC1=C2CCCCC2CCC1=O` (stereo unspecified), for which the TGI in the assay on A549 NSCLC, with ACHN renal, in the assay on EKVX NSCLC, with K-562 leukemia, in the assay on LOX IMVI melanoma and in the assay with MOLT-4 leukemia was over 100 µM throughout. Further, the TGI in the assay on NCI-H522 lung, with SF-268 CNS, with SK-MEL-2 melanoma and in the assay on SW-620 colon was over 100 µM throughout.
With `CCCC(c1cc(C(C)(C)C)c(O)cc1C)c1cc(C(C)(C)C)c(O)cc1C`, the TGI was 9.78 µM in the assay on A549 NSCLC; 7.4 µM in the assay on ACHN renal; 7.75 µM with EKVX NSCLC; 6.43 µM with K-562 leukemia; 3.43 µM with LOX IMVI melanoma; 5.41 µM in the assay with MOLT-4 leukemia. The TGI in the assay with NCI-H522 lung turned out to be 5.72 µM; with SF-268 CNS, 15.1 µM; in the assay with SK-MEL-2 melanoma it was 7.22 µM; in the assay with SW-620 colon it was 10.2 µM.
For `Nc1c2ccccc2nc2nccnc12`, the TGI with A549 NSCLC, with ACHN renal, in the assay on EKVX NSCLC, with K-562 leukemia, in the assay with LOX IMVI melanoma and in the assay on MOLT-4 leukemia was over 100 µM each time. Moreover, the TGI in the assay with NCI-H522 lung, with SF-268 CNS, in the assay with SK-MEL-2 melanoma and in the assay with SW-620 colon was over 100 µM in each case.
